Test results: patent US8685726B2, “Small molecules supporting pluripotent cell growth and methods thereof” (Viacyte, Inc., priority 2009, dated 2014)
“Also recorded” adds a separate entry of the source.

B1: Activin: recombinant Activin A growth factor of the defined medium (protein, UniProt P08476 311-426, looked up)
Inhibin beta A chain: GLECDGKVNICCKKQFFVSFKDIGWNDWIIAPSGYHANYCEGECPSHIAGTSGSSLSFHSTVINHYRMRGHSPFANLKSCCVPTKLRPMSMLYYDDGQNIIKKDIQNMIVEECGCS
modifications: Inhibin beta A chain

What was measured:
Format in all cases: cell-based, human
hES cells = test: Low-density real-time cell index monitoring (RT-CES impedance reader); details: for survival and expansion at low density, single factors and two-factor combinations: 50 μM (NE, ACh, Adenosine, GABA) or 10 μM (Y27632), 5 days; for survival/proliferation compared to DMSO controls: StemPro hESC SFM HIA, low-density impedance assay
Description: FIG. 4. Titration of NE and ACh using the RT-CES impedance reader. 1000 hES cells/well were plated in StemPro® hESC SFM containing the indicated concentrations of small molecules (in μM). In such an assay, the timing of when the cell index rises is associated with the proportion of cells that survive and expand at low density.
FIG. 5. Combined effects of small molecules compound combinations in low cell density assays. (A) 1000 hES cells/well were plated in StemPro® hESC SFM containing small molecules at 50 μM (NE, ACh, Adenosine, GABA) or 10 μM (Y27632). The assay was carried out over 5 days using the RT-CES system.
FIG. 6. […] 1000 hES cells/well were plated in StemPro® hESC SFM containing Heregulin, IGF1 and Activin (HIA) and the indicated small molecules. […] Compounds were tested at 10 μM. The DMSO trace is an average of 8 wells. […] Compounds were tested at the indicated concentrations.
FIG. 7. […] 1000 hES cells/well were plated in StemPro® hESC SFM containing the indicated combinations of growth factors and small molecules. Heregulin (H), LR3-IGF1 (I), Activin (A).
FIG. 9. Low-density RT-CES assays of combinations of growth factors and neurotransmitters. 1000 hES cells/well were plated in StemPro® hESC SFM containing the indicated combinations of growth factors and small molecules. Heregulin (H), LR3-IGF1 (I), Activin (A). Small molecules were tested at 50 μM.
Furthermore, pluripotent cells can also be grown in 96-well culture devices that provide real-time measurements of impedance, which can be used to measure cell proliferation and viability using the RT-CES™ methods from ACEA Biosciences, Inc. (www (dot) aceabio (dot) com). Such an approach would enable a label-free identification and quantification of subtle or immediate effects on differentiable cells, as well as measurements of proliferation, apoptosis and changes to morphology, in real time.
To examine more closely the potency of individual neurotransmitters and determine if synergies exist between different factors, low-density assays were performed in real time using an impedance reader. The ACEA biosciences RT-CES system uses 96-well trays that contain embedded microsensors to monitor changes in electrical impedance, which is translated into a measure of cell index. Any overt alteration within a cell culture can be detected, including but not limited to cell proliferation, migration, cell spreading, apoptosis, differentiation and the like. […] Once an undifferentiated culture becomes confluent the cell index remains high, but tends to go down and up (scallop) between daily feedings. Conversely, differentiation is typically indicated by the appearance of distinctive patterns, such as peaks and troughs in the cell index, likely indicative of an epithelial-to-mesenchymal transition, flattening, cell migration, apoptosis or similar differentiation and growth related changes.
Human ES cells were plated at low density, 1000 cells/well, in RT-CES trays and cultured for 10 days (FIG. 4). Cells were plated directly in StemPro® hESC SFM containing carrier control (DMSO), NE, or ACh.

[1] = system: hES cells (e.g., BGO2 cells); test: Low-density colony forming / colony counting assay (AP+ colonies); details: 10^4 cells/well, StemPro hESC SFM, 7 days; for support of colony formation at low density: compounds at 10 or 50 μM
Description: FIG. 2. Low density plating assay of hES cells (e.g., BGO2 cells). 10000 cells/well were plated in 6-well trays in StemPro® hESC SFM (Life Technologies) medium and stained with alkaline phosphatase (AP+) after 7 days. Y (Y27632), ACh (acetylcholine), NMDA (N-methyl-D-aspartic acid), NE ((−)-Norepinephrine), NE.Bit ((±)-Norepinephrine (+)-bitartrate). Compounds were added at 10 or 50 μM as indicated.
FIG. 3. Low density plating assay of hES cells. (A) 200-10000 cells/well were plated in […] trays in StemPro® hESC SFM medium, or StemPro® hESC SFM +50 μM NE, or +50 μM ACh, and stained with alkaline phosphatase (AP+) after 8 days. […] ACh (acetylcholine), NE ((±)-Norepinephrine (+)-bitartrate). […]
About 10^4 hES cells/well were plated in 6-well trays in StemPro® hESC SFM, in the presence of different compounds and cultured for about 7 days. The cultures were then fixed, stained for alkaline phosphatase activity and colonies were counted (FIG. 2). […] The (±)-Norepinephrine (+)-bitartrate salt was used for all subsequent experiments involving norepinephrine (NE) unless specifically described otherwise.
A similar colony counting experiment was performed using a range of cell densities (FIG. 3). […] See Robins and Schulz 2009, supra. […]

CyT49 cells = test: Suspension aggregate culture, cell counts and aggregate diameters
Description: FIG. 10. Effects of NE and ACh in suspension culture of hES cell. (A) 5×10^6 CyT49 cells were seeded in 5 ml StemPro® hESC SFM containing heregulin, LR3-IGF1, Activin and the indicated neurotransmitters at 50 μM in low-attachment 6-well trays and placed at 100 rpm. Undifferentiated suspension aggregates were imaged on day 4. (B) 24 hours after seeding, two wells from each condition were harvested and counted to determine the number of viable cells. (C) Cell counts of each condition when the cultures were split on day 4. (D) The images in (A) were used to determine aggregate diameters using the ImagePro software measurement tool. Average diameters and standard deviations from 50-100 aggregates from each condition are shown. (E) Passage 1 cell counting data. 5×10^6 CyT49 hES cells from p0 cells in (A) were seeded into the same conditions. The aggregates in the condition containing Y27632 were larger and had to be passaged 3 days after seeding, before the centers of the largest aggregates became necrotic. Conversely, the other conditions could be cultured for 6 days before passaging, resulting in higher cell counts.
FIG. 11. Suspension hES cell cultured with NE, […] remain undifferentiated. CyT49 cells were grown as suspension aggregates in the presence of NE, […] for 16 passages without differentiating morphologically. After p10, some cells were re-plated to adherent culture and examined by karyotyping and immunofluorescent staining for OCT4 and Tra-1-61. All cultures remained undifferentiated and expressed these pluripotency markers uniformly. (SP) StemPro® SFM HIA, NE (+NE at 50 μM), ACh (+ACh at 50 μM), NE/ACh (+NE/ACh at 50 μM). Karyotype data is shown to the right. […] Cultures containing ACh were aneuploid.
Small molecule ligands that support survival or self-renewal at low cell densities could also be expected to have beneficial effects in other culture formats. Applicants have previously developed a suspension culture system for hES cells that enables serial propagation of cells and effective expansion of cultures. Human ES cells, at least BG02 and CyT49 cells, have been maintained in suspension for greater than 10 passages without differentiation. The basis of the technique is to dissociate cultures to single cells with reagents that preserve high viability, such as Accutase™, TrypLE or cell dispersal buffer, then aggregate defined concentrations of cells in defined medium in rotational culture. These methods are described in more detail in International Application PCT/US2008/082356, entitled STEM CELL AGGREGATE SUSPENSION COMPOSITIONS AND METHODS OF DIFFERENTIATION THEREOF, filed Nov. 4, 2008; and International Application PCT/US2007/062755, entitled COMPOSITIONS AND METHODS FOR CULTURING DI[…], filed Feb. 23, 2007, which are herein incorporated by reference in their entireties. Self-aggregation of hES cells occurs in the absence of added extracellular matrix (ECM) or ECM-like proteins and is presumed to be driven in part by homotypic interaction of E-cadherin. The aggregates that are formed expand over 3-4 days and are kept apart from each other by the shear forces generated by rotational culture. Cells are blocked from differentiating by the self-renewal signaling provided by the defined medium and retain their pluripotent characteristics: marker expression, normal karyotype, and differentiation potential in vitro and in teratomas. […]

Molecule | support of colony formation at low density [1] | survival/proliferation compared to DMSO controls (hES cells; 1000 cells/well) | also measured
C[C@@H](N)[C@H]1CC[C@H](C(=O)Nc2ccncc2)CC1 [Y27632] | did not support colony survival/expansion | – | survival and expansion at low density, single factors and two-factor combinations (hES cells; 1000 cells/well): did not survive or proliferate; also recorded: reduced the effects of NE, ACh, Adenosine and GABA; AP+ colonies counted ([1]; 6-well trays): 0 colonies; cells generated at passage 1 (CyT49 cells; passaged after 3 days): about 1.2×10^7 cells; aggregate size on day 4 (CyT49 cells; suspension, StemPro hESC SFM HIA, neurotransmitters 50 μM): fewer numbers of larger aggregates
NCCc1c[nH]cn1 [histamine] | failed to support enhanced colony formation | lack of robust activity | –
COc1cc(CC(=O)O)ccc1O [HVA, homovanillic acid] | – | enhanced survival/proliferation | –
Nc1ncnc2c1ncn2[C@@H]1O[C@H](CO)[C@@H](O)[C@H]1O [adenosine] | supported elevated colony formation | – | survival and expansion at low density, single factors and two-factor combinations (hES cells; 1000 cells/well): less effective; time after plating at which cell index rises above background / expansion detectable (hES cells; 50 μM each factor, 1000 cells/well, StemPro hESC SFM): ~4.5 days
(−)-Norepinephrine | supported elevated colony formation | – | –
CN1CCCC1c1cccnc1 (stereo not shown) [nicotine] | failed to support enhanced colony formation | – | –
CN[C@H](CC(=O)O)C(=O)O [NMDA, N-methyl-D-aspartic acid] | failed to support enhanced colony formation | lack of robust activity | –
B1 | – | – | role in plating, survival and/or expansion at low cell density (hES cells; low cell density): major negative role
